Test results as given in patent US12012403B2, “Aryl sulfonyl compounds as CCR6 inhibitors” (CHEMOCENTRYX, INC., priority 2021, dated 2024).

biological target: T1, human CCR6 (Homo sapiens, UniProt P51684); assay: Migration (chemotaxis) assay, hCCR6-transfected Ba/F3 cells toward CCL20; assay type: cell-based; details: hCCR6-transfected Ba/F3 cells in human serum; recombinant human CCL20 10 nM; 37° C. 45 minutes; read-out: Potency (IC50 value in the migration assay)
T1 construct: expressed in transfected cells; host or cells: Ba/F3 cells (murine pro-B line), hCCR6-transfected, CMV promoter, sodium butyrate induction
T1 sequence (P51684 1-374): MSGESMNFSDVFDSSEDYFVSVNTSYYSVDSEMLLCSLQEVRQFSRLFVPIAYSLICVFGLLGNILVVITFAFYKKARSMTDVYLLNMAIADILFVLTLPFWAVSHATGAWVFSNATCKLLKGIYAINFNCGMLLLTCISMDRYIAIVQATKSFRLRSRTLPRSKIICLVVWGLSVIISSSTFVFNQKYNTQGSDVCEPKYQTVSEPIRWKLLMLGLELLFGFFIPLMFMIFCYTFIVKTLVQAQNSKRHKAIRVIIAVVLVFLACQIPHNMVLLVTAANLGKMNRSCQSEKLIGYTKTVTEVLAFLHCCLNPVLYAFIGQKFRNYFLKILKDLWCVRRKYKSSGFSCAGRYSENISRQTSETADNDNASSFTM
From the text: A chemotaxis assay can be used to determine the efficacy of potential receptor antagonists at blocking the migration mediated through chemokine receptors, such as CCR6. This assay is routinely performed using the ChemoTX® microchamber system with a 5-μm pore-sized polycarbonate membrane. Chemokine receptor-expressing cells are required for such an assay. In this case, Ba/F3 cells (Palacios et al., Nature, 309:126, 1984) transfected with the gene for human CCR6 under control of the CMV promotor were used. To begin such an assay, hCCR6-transfected Ba/F3 cells are first grown for 24 hr in medium supplemented with sodium butyrate, which increases CCR6 transcription via the CMV promotor. The prepared Ba/F3 cells, are collected by centrifugation at 400×g at room temperature, then suspended at 4 million/ml in human serum. The compound being tested is serially diluted from a maximum final concentration of 10 μM (or an equivalent volume of its solvent (DMSO)) and is then added to the cell/serum mixture. Separately, recombinant human CCL20 (MIP-3α/LARC) at its EC50 concentration (10 nM) is placed in the lower wells of the ChemoTX® plate. The 5-μm (pore size) polycarbonate membrane is placed onto the plate, and 20 μL of the cell/compound mixture is transferred onto each well of the membrane. The plates are incubated at 37° C. for 45 minutes, after which the polycarbonate membranes are removed and 5 μl of the DNA-intercalating dye CyQUANT (Invitrogen, Carlsbad, CA) is added to the lower wells. The amount of fluorescence, corresponding to the number of migrated cells, is measured using a Spectrafluor Plus plate reader (TECAN, San Jose, CA).

With `O=C1Cc2cc(-c3ccc(S(=O)(=O)N4CCC(Nc5ccc(C(F)(F)F)cc5)CC4)cc3)ccc2N1` [Example 1.050] as the compound, how does the IC50 read?
The IC50 was 0.005 to 0.1 µM.

`Nc1n[nH]c2ccc(-c3ccc(S(=O)(=O)N4CCC(Nc5ccc(C(F)(F)F)cn5)CC4)cc3)cc12` [Example 1.112] was tested. Which IC50 did it give?
Its IC50 is under 0.005 µM.

Which IC50 does the source give for `CS(=O)(=O)N1CCCC(c2ccc(S(=O)(=O)N3CCC(Nc4ccc(C(F)(F)F)cn4)CC3)cc2)C1` (stereo not drawn) [Example 1.179] here?
Its IC50 is 0.005 to 0.1 µM.

`O=S(=O)(c1ccc(N2CCC(O)CC2)c(F)c1)N1CCC(Nc2ccc(C(F)(F)F)cn2)CC1` [Example 1.208] was tested. Which IC50 did it give?
Its IC50 is 0.1 to 10 µM.

`CC(C)(C)OC(=O)NC1CCN(c2ccc(S(=O)(=O)N3CCC(Nc4ccc(C(F)(F)F)cn4)CC3)cc2)CC1` [Example 1.217] was tested. Which IC50 did it give?
Its IC50 is 0.005 to 0.1 µM.

For `O=S(=O)(c1ccc(N2CC[C@H](O)C2)cc1)N1CCC(Nc2ccc(C(F)(F)F)cn2)CC1` [Example 1.197], which IC50 is on record?
The IC50 was 0.1 to 10 µM.

With `NS(=O)(=O)C1CCN(c2ccc(S(=O)(=O)N3CCC(Nc4ccc(C(F)(F)F)cn4)CC3)cc2)CC1` [Example 1.189] as the compound, how does the IC50 read?
The IC50 was 0.1 to 10 µM.

With `O=C1NS(=O)(=O)c2ccc(-c3ccc(S(=O)(=O)N4CCC(Nc5ccc(C(F)(F)F)cn5)CC4)cc3)cc21` [Example 1.063] as the compound, how does the IC50 read?
Its IC50 is 0.005 to 0.1 µM.

Which IC50 does the source give for `Cc1n[nH]c2ccc(-c3ccc(S(=O)(=O)N4CCC(Nc5ccc(C(F)(F)F)cn5)CC4)cc3)cc12` [Example 1.094] here?
Its IC50 is 0.005 to 0.1 µM.

How did the IC50 turn out when `O=C1COC2(CCN(c3ccc(S(=O)(=O)N4CCC(Nc5ccc(C(F)(F)F)cn5)CC4)cc3)CC2)CN1` [Example 1.147] was run?
Its IC50 is 0.005 to 0.1 µM.

Which IC50 does the source give for `CN1CCC2(CC1)C(=O)Nc1ccc(-c3ccc(S(=O)(=O)N4CCC(Nc5ccc(C(F)(F)F)cn5)CC4)cc3)cc12` [Example 1.006] here?
Its IC50 is 0.1 to 10 µM.

Which IC50 does the source give for `O=S(=O)(c1ccc(N2CC[C@@H](O)C2)cc1)N1CCC(Nc2ccc(C(F)(F)F)cn2)CC1` [Example 1.186] here?
Its IC50 is 0.1 to 10 µM.

`CC1(C)NC(=O)c2ncc(-c3ccc(S(=O)(=O)N4CCC(Nc5ccc(C(F)(F)F)cn5)CC4)cc3)cc21` [Example 1.009] was tested. Which IC50 did it give?
Its IC50 is under 0.005 µM.

With `O=S(=O)(c1ccc(-c2ccnc3[nH]ccc23)cc1)N1CCC(Nc2ccc(C(F)(F)F)cn2)CC1` [Example 1.083] as the compound, how does the IC50 read?
The IC50 was 0.005 to 0.1 µM.

Which IC50 does the source give for `N#Cc1cn(CC(N)=O)c2ncc(-c3ccc(S(=O)(=O)N4CCC(Nc5ccc(C(F)(F)F)cn5)CC4)cc3)cc12` [Example 1.039] here?
The IC50 was under 0.005 µM.

Which IC50 does the source give for `O=C1Nc2ncc(-c3ccc(S(=O)(=O)N4CCC(Nc5ccc(C(F)(F)F)cn5)CC4)cc3)cc2C12CCOCC2` [Example 1.064] here?
The IC50 was under 0.005 µM.

For `NC(=O)C1CCN(c2ccc(S(=O)(=O)N3CCC(Nc4ccc(C(F)(F)F)cn4)CC3)cc2)CC1` [Example 1.228], which IC50 is on record?
The IC50 was 0.005 to 0.1 µM.

`O=S(=O)(c1ccc(N2CCC(c3ccn[nH]3)CC2)cc1)N1CCC(Nc2ccc(C(F)(F)F)cn2)CC1` [Example 1.222] was tested. Which IC50 did it give?
The IC50 was 0.005 to 0.1 µM.

With `O=C(CO)N1CCN(c2ccc(S(=O)(=O)N3CCC(Nc4ccc(C(F)(F)F)cn4)CC3)cc2)CC1` [Example 1.194] as the compound, how does the IC50 read?
Its IC50 is 0.005 to 0.1 µM.

For `CC(=O)NCC1CCN(c2ccc(S(=O)(=O)N3CCC(Nc4ccc(C(F)(F)F)cn4)CC3)cc2)CC1` [Example 1.140], which IC50 is on record?
Its IC50 is 0.005 to 0.1 µM.

For `Cn1nc(C#N)c2cc(-c3ccc(S(=O)(=O)N4CCC(Nc5ccc(C(F)(F)F)cn5)CC4)cc3)ccc21` [Example 1.091], which IC50 is on record?
Its IC50 is under 0.005 µM.

For `O=S(=O)(c1ccc(-c2cnc3[nH]ccc3c2F)cc1)N1CCC(Nc2ccc(C(F)(F)F)cn2)CC1` [Example 1.030], which IC50 is on record?
The IC50 was under 0.005 µM.

How did the IC50 turn out when `O=C1Cc2ncc(-c3ccc(S(=O)(=O)N4CCC(Nc5ccc(C(F)(F)F)cn5)CC4)cc3)cc2N1` [Example 1.022] was run?
The IC50 was 0.005 to 0.1 µM.

`O=S(=O)(c1ccc(-c2ccc3[nH]nnc3c2)cc1)N1CCC(Nc2ccc(C(F)(F)F)cn2)CC1` [Example 1.109] was tested. Which IC50 did it give?
Its IC50 is 0.1 to 10 µM.

`O=C1CO[C@@H]2CCN(c3ccc(S(=O)(=O)N4CCC(Nc5ccc(C(F)(F)F)cn5)CC4)cc3)C[C@@H]2N1` (racemic) [Example 1.170] was tested. Which IC50 did it give?
Its IC50 is 0.1 to 10 µM.

How did the IC50 turn out when `O=S(=O)(c1ccc(N2CC3(CC(O)C3)C2)cc1)N1CCC(Nc2ccc(C(F)(F)F)cn2)CC1` [Example 1.187] was run?
The IC50 was 0.005 to 0.1 µM.

`O=S(=O)(c1ccc(N2CCC[C@H](O)C2)cc1)N1CCC(Nc2ccc(C(F)(F)F)cn2)CC1` [Example 1.198] was tested. Which IC50 did it give?
The IC50 was 0.005 to 0.1 µM.
